In US8962596B2 (Array BioPharma Inc., priority 2010, dated 2015):

Assays:
Type in all cases: biochemical
[1] = biological target: T1, Human Tyk2 kinase domain (Homo sapiens, UniProt P29597); experiment: Tyk2 Inhibition Assay (Omnia kinase fluorescence peptide substrate assay); details: averaged IC50 ranges; assay of Example A; 10 μM (Km app) or 1 mM ATP, 2 nM Tyk2
T1 construct: comprising amino acids 886 to 1187 with 10 additional histidine residues; 10xHis (histidine tag) (C, cleaved yes); made in house
T1 sequence (P29597 886-1187): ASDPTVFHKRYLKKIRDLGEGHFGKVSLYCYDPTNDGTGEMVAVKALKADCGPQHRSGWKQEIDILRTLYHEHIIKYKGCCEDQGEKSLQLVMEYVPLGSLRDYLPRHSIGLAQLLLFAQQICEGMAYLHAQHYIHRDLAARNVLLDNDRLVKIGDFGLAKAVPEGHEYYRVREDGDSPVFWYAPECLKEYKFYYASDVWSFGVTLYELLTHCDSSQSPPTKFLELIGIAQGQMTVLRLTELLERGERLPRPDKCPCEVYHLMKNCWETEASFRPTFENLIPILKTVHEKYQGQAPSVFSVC
Text: (§1) The assays described in Examples A, B, C and D for the determination of Tyk2, JAK1, JAK2 and JAK3 kinase activity, respectively, utilized the Omnia® Kinase fluorescence peptide substrate-based technology (Invitrogen). The specific components of the assay mixture are described in Examples A, B, C and D. In these assays, Mg^2+ is chelated upon phosphorylation of the Omnia peptide by the kinase to form a bridge between the chelation-enhanced fluorophore Sox and the phosphate, resulting in an increase in fluorescence emission at 485 nm when excited at […]. The reactions were therefore read at excitation 360 nm and emission was measured at 485 nm every 50 seconds for 45 minutes using a PerkinElmer EnVision Multilabel Plate Reader.
(§2) The final buffer conditions for Tyk2, JAK1, JAK2, and JAK3 assays were as follows: 25 mM HEPES, pH 7.4, 10 mM MgCl2, 0.01% Triton X-100 and 1 mM DTT.
(§3) Compounds were prepared at 50× the final concentration in DMSO by conducting 3-fold serial dilutions from a 500-μM intermediate dilution to give a 10-point dosing curve having a high dose of 10 μM. Two-μL aliquots of these were transferred to a fresh plate for a ten-fold intermediate dilution with assay buffer. Five-μL aliquots of the diluted compounds were then transferred to 20-μL of assay mixtures described in Examples A, B, C and D for a final concentration of DMSO of 2%. A standard or reference compound was typically included on each assay plate to validate that plate. For each plate, percent of control (POC) values were calculated for each well according to the following equation:
(§4) where Xmax=Average Uninhibited Controls • Xmin=Average Background IC50's were estimated from the POC's using a standard 4-parameter logistic model:
(§5) where • A=Minimum Y (Bottom Asymptote) • B=Maximum Y (Top Asymptote) • C=EC50 • D=Slope Factor • X=Compound Concentration (nM) • Y=POC
(§6) The IC50 is defined as the concentration of inhibitor at which the POC equals 50 for the fitted curve.
Compounds of Formula I were screened for their ability to inhibit Tyk2 using the general enzyme inhibition assay method, in which the assay mixture contained 10 μM (Km app) or 1 mM ATP, 8 μM Omnia® Y12 peptide (Catalog #IVGN KPZ3121C; Invitrogen Corporation, Carlsbad, Calif.) and 2 nM Tyk2 in a total volume of 20 μL. Human Tyk2 kinase domain, comprising amino acids 886 to 1187 with 10 additional histidine residues (histidine tag) on the carboxy terminus, was expressed and purified from bacculovirus in-house at Array BioPharma Inc. (Boulder, Colo.). The histidine tag was cleaved after purification using standard conditions.

[2] = biological target: T2, JAK2 (Homo sapiens, UniProt O60674); experiment: JAK2 Inhibition Assay (Omnia kinase fluorescence peptide substrate assay); details: averaged IC50 ranges; assay of Example C; 25 μM (Km app) or 1 mM ATP, 5 nM JAK2
T2 construct: purchased Invitrogen Corporation, Carlsbad, Calif; PV4288
Text: as §1, §2, §3, §4, §5, §6
(§7) Compounds of Formula I were screened for their ability to inhibit JAK2 using the general enzyme inhibition assay method, in which the assay mixture contained 25 μM (Km app) or 1 mM ATP, 10 μM Omnia® Y7 peptide (Catalog #IVGN KNZ3071C, Invitrogen Corporation, Carlsbad, Calif.) and 5 nM JAK2 in a total volume of 20 μL. JAK2 was purchased from Invitrogen Corporation, Carlsbad, Calif. (catalog #IVGN PV4288).

[3] = biological target: T3, JAK1 (Homo sapiens, UniProt P23458); experiment: JAK1 Inhibition Assay (Omnia kinase fluorescence peptide substrate assay); details: averaged IC50 ranges; assay of Example B; 40 μM (Km app) or 1 mM ATP, 15 nM JAK1
T3 construct: purchased Invitrogen Corporation, Carlsbad, Calif; PV4775
Text: as §1, §2, §3, §4, §5, §6
Compounds of Formula I were screened for their ability to inhibit JAK1 using the general enzyme inhibition assay method, in which the assay mixture contained 40 μM (Km app) or 1 mM ATP, 8 μM Omnia® Y12 peptide (Catalog #IVGN KPZ3121C; Invitrogen Corporation, Carlsbad, Calif.) and 15 nM JAK1 in a total volume of 20 μL. JAK1 was purchased from Invitrogen Corporation, Carlsbad, Calif. (catalog #IVGN PV4775).

[4] = biological target: T4, JAK3 (Homo sapiens, UniProt P52333); experiment: JAK3 Inhibition Assay (Omnia kinase fluorescence peptide substrate assay); details: averaged IC50 ranges; assay of Example D; 10 μM (Km app) or 1 mM ATP, 2.5 nM JAK3
T4 construct: purchased Invitrogen Corporation, Carlsbad, Calif; PV4080
T4 sequence (P52333 1-1124): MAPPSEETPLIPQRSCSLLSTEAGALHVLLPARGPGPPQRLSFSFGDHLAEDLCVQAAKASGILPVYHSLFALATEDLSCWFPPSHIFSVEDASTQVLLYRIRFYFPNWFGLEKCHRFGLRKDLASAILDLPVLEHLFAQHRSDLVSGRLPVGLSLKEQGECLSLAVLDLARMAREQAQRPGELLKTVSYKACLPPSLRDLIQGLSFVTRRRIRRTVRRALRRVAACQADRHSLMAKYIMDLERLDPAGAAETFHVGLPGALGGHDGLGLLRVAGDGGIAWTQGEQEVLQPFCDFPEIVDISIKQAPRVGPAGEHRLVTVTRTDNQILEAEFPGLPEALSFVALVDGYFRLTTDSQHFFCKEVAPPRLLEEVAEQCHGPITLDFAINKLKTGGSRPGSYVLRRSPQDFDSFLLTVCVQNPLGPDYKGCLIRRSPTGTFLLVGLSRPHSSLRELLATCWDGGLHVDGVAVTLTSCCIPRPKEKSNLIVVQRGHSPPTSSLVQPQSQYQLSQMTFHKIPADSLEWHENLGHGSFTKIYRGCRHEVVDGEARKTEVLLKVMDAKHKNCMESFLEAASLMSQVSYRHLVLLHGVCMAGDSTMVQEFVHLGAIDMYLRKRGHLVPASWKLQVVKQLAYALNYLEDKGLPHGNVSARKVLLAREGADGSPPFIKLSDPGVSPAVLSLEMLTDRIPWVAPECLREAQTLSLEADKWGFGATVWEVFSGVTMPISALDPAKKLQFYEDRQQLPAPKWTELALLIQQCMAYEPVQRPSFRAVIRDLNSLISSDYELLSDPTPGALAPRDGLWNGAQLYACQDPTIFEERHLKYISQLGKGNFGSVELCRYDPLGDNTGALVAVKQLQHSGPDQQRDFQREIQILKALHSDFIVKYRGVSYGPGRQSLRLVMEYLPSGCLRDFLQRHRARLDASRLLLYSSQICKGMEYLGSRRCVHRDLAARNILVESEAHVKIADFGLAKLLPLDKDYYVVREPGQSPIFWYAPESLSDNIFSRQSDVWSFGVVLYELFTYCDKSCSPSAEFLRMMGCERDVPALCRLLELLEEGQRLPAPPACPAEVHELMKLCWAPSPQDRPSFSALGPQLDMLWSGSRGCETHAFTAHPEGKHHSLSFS
Text: as §1, §2, §3, §4, §5, §6
as §7, with “JAK3” for “JAK2”, “10” for “25”, “2.5” for “5”, “PV4080).” for “PV4288).”

T3 sequence (P23458 whole entry): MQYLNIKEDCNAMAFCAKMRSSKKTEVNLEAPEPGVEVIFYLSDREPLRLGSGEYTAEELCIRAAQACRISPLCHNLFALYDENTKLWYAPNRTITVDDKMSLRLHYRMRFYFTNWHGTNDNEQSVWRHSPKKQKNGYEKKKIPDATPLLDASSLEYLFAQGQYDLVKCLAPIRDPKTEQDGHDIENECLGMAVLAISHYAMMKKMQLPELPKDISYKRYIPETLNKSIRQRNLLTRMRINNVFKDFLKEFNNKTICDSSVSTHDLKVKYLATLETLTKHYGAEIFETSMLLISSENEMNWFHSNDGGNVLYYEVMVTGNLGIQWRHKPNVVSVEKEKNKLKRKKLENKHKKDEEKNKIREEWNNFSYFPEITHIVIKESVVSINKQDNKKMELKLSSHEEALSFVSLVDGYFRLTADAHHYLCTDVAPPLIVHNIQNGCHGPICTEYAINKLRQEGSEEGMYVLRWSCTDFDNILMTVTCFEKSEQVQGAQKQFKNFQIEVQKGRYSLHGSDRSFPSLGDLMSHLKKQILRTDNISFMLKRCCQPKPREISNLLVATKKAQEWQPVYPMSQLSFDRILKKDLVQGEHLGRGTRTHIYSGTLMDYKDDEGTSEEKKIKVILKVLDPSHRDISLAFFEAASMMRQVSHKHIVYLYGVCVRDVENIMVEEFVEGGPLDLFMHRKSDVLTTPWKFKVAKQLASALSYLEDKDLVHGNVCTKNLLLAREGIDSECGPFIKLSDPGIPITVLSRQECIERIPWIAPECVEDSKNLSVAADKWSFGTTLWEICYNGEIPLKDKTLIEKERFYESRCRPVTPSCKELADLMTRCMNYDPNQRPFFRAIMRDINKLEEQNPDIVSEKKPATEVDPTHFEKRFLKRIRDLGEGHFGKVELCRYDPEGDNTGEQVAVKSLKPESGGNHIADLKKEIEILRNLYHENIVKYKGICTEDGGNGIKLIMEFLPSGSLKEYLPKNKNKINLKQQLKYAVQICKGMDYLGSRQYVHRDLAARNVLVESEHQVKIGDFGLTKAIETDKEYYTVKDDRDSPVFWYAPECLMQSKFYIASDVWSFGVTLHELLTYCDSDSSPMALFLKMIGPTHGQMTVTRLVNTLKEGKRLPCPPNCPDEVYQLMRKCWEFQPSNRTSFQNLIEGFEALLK
T2 sequence (O60674 whole entry): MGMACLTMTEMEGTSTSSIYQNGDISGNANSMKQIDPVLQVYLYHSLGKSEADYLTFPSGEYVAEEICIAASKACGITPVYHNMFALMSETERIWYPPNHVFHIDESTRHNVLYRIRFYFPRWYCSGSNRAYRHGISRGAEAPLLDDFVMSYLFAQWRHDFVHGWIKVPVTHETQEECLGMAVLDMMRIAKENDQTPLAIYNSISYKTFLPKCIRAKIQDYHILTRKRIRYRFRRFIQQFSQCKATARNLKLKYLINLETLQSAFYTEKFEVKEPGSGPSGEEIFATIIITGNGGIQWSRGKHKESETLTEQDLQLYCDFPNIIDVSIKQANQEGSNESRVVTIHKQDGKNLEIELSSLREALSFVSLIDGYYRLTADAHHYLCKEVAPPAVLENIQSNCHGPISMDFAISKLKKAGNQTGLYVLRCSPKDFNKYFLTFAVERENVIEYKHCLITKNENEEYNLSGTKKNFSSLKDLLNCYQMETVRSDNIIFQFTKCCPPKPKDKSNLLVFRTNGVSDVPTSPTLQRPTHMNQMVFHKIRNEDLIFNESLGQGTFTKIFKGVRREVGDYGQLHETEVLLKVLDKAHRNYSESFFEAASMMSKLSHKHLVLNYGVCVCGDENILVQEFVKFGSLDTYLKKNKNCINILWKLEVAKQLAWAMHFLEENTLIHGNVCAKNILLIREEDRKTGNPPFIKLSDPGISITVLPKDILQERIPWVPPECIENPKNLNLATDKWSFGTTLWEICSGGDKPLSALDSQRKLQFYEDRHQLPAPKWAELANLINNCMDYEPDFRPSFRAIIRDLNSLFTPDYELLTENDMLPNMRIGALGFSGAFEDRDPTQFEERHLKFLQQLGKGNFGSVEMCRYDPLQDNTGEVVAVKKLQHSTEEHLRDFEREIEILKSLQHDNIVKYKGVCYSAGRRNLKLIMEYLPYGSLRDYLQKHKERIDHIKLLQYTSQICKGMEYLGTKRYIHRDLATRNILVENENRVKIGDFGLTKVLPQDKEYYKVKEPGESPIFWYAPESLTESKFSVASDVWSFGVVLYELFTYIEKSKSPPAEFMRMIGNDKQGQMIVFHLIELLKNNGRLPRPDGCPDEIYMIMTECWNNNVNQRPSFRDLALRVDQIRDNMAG

| SMILES | IC50 [1] [nM] | IC50 [2] [nM] | IC50 [3] [nM] | IC50 [4] [nM] |
| --- | --- | --- | --- | --- |
| CCCN1CCC(CC#N)(n2cc(-c3nc(-c4cnn(C)c4)cc4nccn34)cn2)CC1 [Example 30, 2-(4-(4-(7-(1-methyl-1H-pyrazol-4-yl)imidazo[1,2-c]pyrimidin-5-yl)-1H-pyrazol-1-yl)-1-propylpiperidin-4-yl)acetonitrile] | 100 to 1000 | > 1000 | > 1000 | > 1000 |
| Cn1cc(-c2cc3ncc(Cl)n3c(-c3cnn(C(CC#N)C4CC4)c3)n2)cn1 (stereo not drawn) [Example 25, 3-(4-(3-chloro-7-(1-methyl-1H-pyrazol-4-yl)imidazo[1,2-c]pyrimidin-5-yl)-1H-pyrazol-1-yl)-3-cyclopropylpropanenitrile] | < 10 | 10 to 100 | 10 to 100 | 100 to 1000 |
| Cn1cc(-c2cc3nccn3c(-c3cnn(C4(CC#N)CCCCC4)c3)n2)cn1 [Example 22, 2-(1-(4-(7-(1-methyl-1H-pyrazol-4-yl)imidazo[1,2-c]pyrimidin-5-yl)-1H-pyrazol-1-yl)cyclohexyl)acetonitrile] | 10 to 100 | 100 to 1000 | 100 to 1000 | > 1000 |
| N#CCC(C1CC1)n1cc(-c2nc(-c3cncs3)cc3nccn23)cn1 (stereo not drawn) [Example 47, 3-Cyclopropyl-3-(4-(7-(thiazol-5-yl)imidazo[1,2-c]pyrimidin-5-yl)-1H-pyrazol-1-yl)propanenitrile] | 10 to 100 | 100 to 1000 | 100 to 1000 | > 1000 |
| Cn1cc(-c2cc3nccn3c(-c3cnn(CCC#N)c3)n2)cn1 [Example 19, 3-(4-(7-(1-methyl-1H-pyrazol-4-yl)imidazo[1,2-c]pyrimidin-5-yl)-1H-pyrazol-1-yl)propanenitrile] | 10 to 100 | 100 to 1000 | 100 to 1000 | > 1000 |
| Cn1cc(-c2cc3ncc(F)n3c(-c3cnn(C(CC#N)C4CC4)c3)n2)cn1 (stereo not drawn) [Example 152, 3-cyclopropyl-3-(4-(3-fluoro-7-(1-methyl-1H-pyrazol-4-yl)imidazo[1,2-c]pyrimidin-5-yl)-1H-pyrazol-1-yl)propanenitrile] | < 10 | 10 to 100 | 100 to 1000 | 100 to 1000 |
| CN1CCC(c2ccc(-c3cc4nccn4c(-c4cnn(C(CC#N)C5CCCC5)c4)n3)cc2)CC1 (single isomer, unassigned) [Example 112, 3-cyclopentyl-3-(4-(7-(4-(1-methylpiperidin-4-yl)phenyl)imidazo[1,2-c]pyrimidin-5-yl)-1H-pyrazol-1-yl)propanenitrile] | < 10 | 10 to 100 | 10 to 100 | 100 to 1000 |
| CN1CCN(c2ccc(-c3cc4nccn4c(-c4cnn(C5(CC#N)CN(S(=O)(=O)C(F)(F)F)C5)c4)n3)cc2)CC1 [Example 138, 2-(3-(4-(7-(4-(4-methylpiperazin-1-yl)phenyl)imidazo[1,2-c]pyrimidin-5-yl)-1H-pyrazol-1-yl)-1-(trifluoromethylsulfonyl)azetidin-3-yl)acetonitrile] | < 10 | 10 to 100 | 10 to 100 | 100 to 1000 |
| CC(C)n1cc(-c2cc3nccn3c(-c3cnn(C4(CC#N)CN(S(=O)(=O)C(F)(F)F)C4)c3)n2)cn1 [Example 101, 2-(3-(4-(7-(1-Isopropyl-1H-pyrazol-4-yl)imidazo[1,2-c]pyrimidin-5-yl)-1H-pyrazol-1-yl)-1-(trifluoromethylsulfonyl)azetidine-3-yl)acetonitrile] | < 10 | < 10 | < 10 | 100 to 1000 |
| Cn1cc(-c2cc3nccn3c(-c3cnn(C4(CC#N)CN(CCCF)C4)c3)n2)cn1 [Example 74, 2-(1-(3-fluoropropyl)-3-(4-(7-(1-methyl-1H-pyrazol-4-yl)imidazo[1,2-c]pyrimidin-5-yl)-1H-pyrazol-1-yl)azetidin-3-yl)acetonitrile] | < 10 | 100 to 1000 | 100 to 1000 | > 1000 |
| Cn1cc(-c2cc3nccn3c(-c3cnn(C4(CC#N)CN(S(=O)(=O)C5CCCCC5)C4)c3)n2)cn1 [Example 94, 2-(1-(cyclohexylsulfonyl)-3-(4-(7-(1-methyl-1H-pyrazol-4-yl)imidazo[1,2-c]pyrimidin-5-yl)-1H-pyrazol-1-yl)azetidin-3-yl)acctonitrile] | 10 to 100 | 100 to 1000 | > 1000 | > 1000 |
| Cn1cc(-c2cc3nccn3c(-c3cnn(C(CC#N)C4CC4)c3)n2)cn1 (stereo not drawn) [Example 2, 3-Cyclopropyl-3-(4-(7-(1-methyl-1H-pyrazol-4-yl)imidazo[1,2-c]pyrimidin-5-yl)-1H-pyrazol-1-yl)propanenitrile] | < 10 | 10 to 100 | 100 to 1000 | > 1000 |
